Measurements from PMC12820429, “Modulating food intake by nasal application of peptides targeting melanocortin 4 receptor and ghrelin receptor systems” (Brain Communications, 2026).

Molecular target: T1, MC4R (Homo sapiens, UniProt P32245)
T1 construct: expressed in transfected cells; host or cells: HEK293 (transient transfection, pcDNA3_MC4R plus CRE-luciferase reporter pGL4.29)
Test: cAMP reporter gene assay
Type: cell-based
Conditions: normalized to maximal setmelanotide response; n ≥ 2
Procedure: HEK293 cells were cultured under standard conditions.[33] Cyclic adenosine monophosphate (cAMP) reporter gene assay was carried out with HEK293 cells transiently transfected with pGL4.29[luc2P/CRE/Hygro] (Promega, Madison, WI, USA) and pcDNA3_MC4R plasmids. For transfection, a master mix consisting of 0.6 µL Lipofectamine (Invitrogen by Thermo Fisher) per 25 µL Opti-MEM (Gibco, Grand Island, NY, USA) per well was preincubated at room temperature for 5 min and then gently mixed with 0.125 µg of both plasmids per 25 µL Opti-MEM per well and incubated for 30 min at room temperature. […] Two hundred microlitres of the mixture was added per well to a white 96-well plate (Greiner Bio-One International GmbH, Kremsmünster, Austria), previously coated with 0.1 mg/mL poly-D-lysine (Sigma-Aldrich) in Dulbecco’s phosphate-buffered saline (DPBS) for 1 h at room temperature. Cells were incubated overnight at humidified atmosphere (37°C, 5% CO2). […] The medium was removed, and cells were starved in 50 μL of DMEM/F12 (1:1) without FBS at humidified atmosphere for 1 h. One millimolar peptide stocks in dimethyl sulfoxide (DMSO, Sigma-Aldrich) were diluted in DMEM/F12 (1:1) to desired concentrations. […] The plate was transferred to a plate reader (Infinite M200, Tecan Trading AG, Männedorf, Switzerland), briefly shaken and incubated 5 min at room temperature. […]

T1 sequence (P32245 whole entry, species assumed): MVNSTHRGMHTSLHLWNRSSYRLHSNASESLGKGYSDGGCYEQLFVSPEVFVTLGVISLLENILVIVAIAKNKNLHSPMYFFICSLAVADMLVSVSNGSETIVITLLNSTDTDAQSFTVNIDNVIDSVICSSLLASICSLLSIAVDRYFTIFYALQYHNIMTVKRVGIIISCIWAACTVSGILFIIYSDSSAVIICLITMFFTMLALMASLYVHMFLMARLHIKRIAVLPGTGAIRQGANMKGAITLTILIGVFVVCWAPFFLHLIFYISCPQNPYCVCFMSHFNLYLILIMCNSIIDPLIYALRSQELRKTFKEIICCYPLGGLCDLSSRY

CC(=O)N[C@@H](CCCNC(=N)N)C(=O)N[C@H]1CSSC[C@@H](C(N)=O)NC(=O)[C@H](Cc2c[nH]c3ccccc23)NC(=O)[C@H](CCCNC(=N)N)NC(=O)[C@@H](Cc2ccccc2)NC(=O)[C@H](Cc2c[nH]cn2)NC(=O)[C@@H](C)NC1=O [peptide 1.1, Ac-R^bCaHfRW^bC-NH2] was tested, and the Emax was 100 ± 4%.
